# Experimental data reported in patent US20260232666A1, “COMPOSITIONS AND METHODS FOR INHIBITION OF RAS” (TheRas, Inc., priority 2023, published 2026).
# Key:
# [1] = test system: pERK in NCI-H358 cells; test: Cell-based pERK HTRF assay (pERK inhibition in H358 cells); settings: Homo sapiens, NCI-H358, 0.5 h, 30 min incubation
# Summary of the method: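 NCI-H358 cells were seeded at 4×10^4 cells/well in RPMI/10% FBS, then treated next day for 30 min at 0.25% DMSO (9-point, 3-fold series from 75 μM). Lysates were read by HTRF (d2/Eu cryptate antibody pair, 615 nm emission) after 4–24 h at room temperature to give pERK IC50.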
# [2] = target: T1, GDP-loaded KRAS4b (amino acids 1-169) G12C/C118S protein (Homo sapiens, UniProt P01116, C118S/G12C); test: Covalent cysteine 12 modification by MALDI-TOF MS, GDP-loaded KRAS G12C; assay type: binding; settings: 15 minutes reaction time point
# T1 construct: KRAS4b (amino acids 1-169) G12C/C118S protein; made in house
# Summary of the method: (§1)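 Percent modification comes from MALDI-TOF peak heights: the compound-adduct peak divided by the sum of the remaining-protein and adduct peaks. Reactions contained 1 μM protein and compound at a 1:2.5 ratio, in pH 7.3 HEPES buffer with NaCl and MgCl2, held 15 min at room temperature.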
# [3] = target: T2, GTP-loaded KRAS4b (amino acids 1-169) G12C/C118S protein (Homo sapiens, UniProt P01116, C118S/G12C); test: Covalent cysteine 12 modification by MALDI-TOF MS, GTP-loaded KRAS G12C; assay type: binding; settings: 15 minutes reaction time point
# T2 construct: KRAS4b (amino acids 1-169) G12C/C118S protein; made in house
# Summary of the method: as §1
# [4] = target: T3, GppNHp-loaded KRAS4b (amino acids 1-169) G12C/C118S protein (Homo sapiens, UniProt P01116, C118S/G12C); test: Covalent cysteine 12 modification by MALDI-TOF MS, GppNHp-loaded KRAS G12C; assay type: binding; settings: 15 minutes reaction time point
# T3 construct: KRAS4b (amino acids 1-169) G12C/C118S protein; made in house
# Summary of the method: as §1
IC50 [1] [nM],GDP-KRAS G12C percent of modification [2],GTP-KRAS G12C percent of modification [3],GppNHp-KRAS G12C percent of modification [4],Compound
< 100,A (percent of modification ≥70%),A (percent of modification ≥70%),A (percent of modification ≥70%),C=CC(=O)N1CC[C@@H](N(C)c2nc(OC[C@]34CCCN3C[C@H](OC)C4)nc3c(F)c(-c4ccc(F)c5sc(N)c(C#N)c45)c(Cl)cc23)[C@H]1C [Compound 161]
< 100,A (percent of modification ≥70%),A (percent of modification ≥70%),A (percent of modification ≥70%),C=CC(=O)N1CC[C@@H](N(CC)c2nc(OC[C@@]34CCCN3C[C@H](OC)C4)nc3c(F)c(-c4ccc(F)c5sc(N)c(C#N)c45)c(Cl)cc23)[C@H]1C [Compound 163]
< 100,A (percent of modification ≥70%),A (percent of modification ≥70%),A (percent of modification ≥70%),C=CC(=O)N1CC[C@@H](N(CC)c2nc(OC[C@]34CCCN3C[C@H](OC)C4)nc3c(F)c(-c4ccc(F)c5sc(N)c(C#N)c45)c(Cl)cc23)[C@H]1C [Compound 164]
< 100,A (percent of modification ≥70%),A (percent of modification ≥70%),A (percent of modification ≥70%),C=CC(=O)N1CC[C@@H](N(CC)c2nc(OC[C@]34CCCN3C[C@H](F)C4)nc3c(F)c(-c4ccc(F)c5sc(N)c(C#N)c45)c(Cl)cc23)[C@H]1C [Compound 165]
< 100,A (percent of modification ≥70%),A (percent of modification ≥70%),A (percent of modification ≥70%),C=CC(=O)N1CC[C@@H](N(CC)c2nc(OC[C@]34CCCN3C[C@H](F)C4)nc3cc(-c4ccc(F)c5sc(N)c(C#N)c45)c(F)cc23)[C@H]1C [Compound 167]
100 to 1000,A (percent of modification ≥70%),A (percent of modification ≥70%),A (percent of modification ≥70%),C=CC(=O)N1CC[C@@H](N(CC)c2nc(OC[C@]34CCCN3C[C@H](OC)C4)nc3c(F)c(-c4ccc(F)c5sc(N)c(C#N)c45)ccc23)[C@H]1C [Compound 169]
